We go through seven molecules from patent US20110045004A1, “METHOD FOR IN-VITRO DETECTING PATHOGENIC T HELPER CELLS AND PHARMACEUTICAL COMPOSITIONS FOR TREATING AUTOIMMUNE DISEASES” (DEUTCHES RHEUMA-FORSCHUNGSZENTRUM BERLIN, priority 2007, published 2011).

Data set [1] has as its system twist1 mRNA in 4-w-old Th1 cells. As to the kind of experiment: twist1 mRNA (RT PCR) in restimulated 4-w-old Th1 cells with inhibitors or single stimuli. The note with it: for induction of twist1 expression by stimulus alone: 4-w-old Th1 cells restimulated 3 h in the presence of IL-2 (FIG. 2C); for PMA/ionomycin mediated up-regulation of twist1 mRNA expression: 4-w-old Th1 cells restimulated 3 h with PMA/ionomycin and IL-2, serial dilutions of inhibitor (FIG. 2B). The data set is classed as cell-based, murine. The protocol:
(§1) Lymphocytes were cultured in complete RPMI1640 (Invitrogen) supplemented with 10% heat-inactivated fetal calf serum, 100 units/ml penicillin, 0.1 mg/ml streptomycin and 10 μM β-mercaptoethanol. Naïve CD4+CD62L+ lymphocytes from 6-8 w old DO11.10 mice were isolated as described. Irradiated (30 Gy) BALB/c splenocytes were used as APCs at a ratio of 5:1. The cognate peptide ova323-339 (R. Volkmer-Engert, Humboldt University of Berlin, Germany) was added at 0.5 μM. Alternatively, plates were coated with 3 μg/ml anti-CD3 (145-2C11) in PBS, and CD4+ cells were plated at a density of 2×10^6 cells/ml in medium plus 1 μg/ml soluble anti-CD28 (37.51). For Th1 differentiation, cells were stimulated in the presence of 5 ng/ml recombinant murine IL-12 (R&D Systems) and 5 μg/ml anti-IL-4 antibody (11B11). For Th2 differentiation, cells were stimulated in the presence of murine IL-4 (100 ng/ml, culture supernatant of HEK293T cells transfected with an expression plasmid, encoding murine IL-4), 5 μg/ml anti-IL-12 antibody (C17.8.6) and anti-IFN-γ antibody (AN18.17.24). Dead cells were removed by Ficoll-Histopaque separation. Every 6 d viable Th cells were harvested and restimulated under the original conditions, except that 10 ng/ml murine IL-2 (R&D Systems) was added.
Cells were re-stimulated with 10 ng/ml PMA, and 1 μg/ml ionomycin. Alternatively, cells were re-stimulated with plate-bound anti-CD3 (10 μg/ml), and soluble anti-CD28 ([…]). For re-stimulation of murine T cells, 10 ng/ml IL-2 was added. For intracellular staining of cytokines, T cells were stimulated for 2 h with PMA/ionomycin and additional 3 h with 5 μg/ml of brefeldin A to block the secretion of cytokines. Cells were fixed with 2% formaldehyde in PBS for 15 min at room temperature and permeabilized with 0.5% w/v saponin.
(§2) Total RNA was prepared using NucleoSpin RNA II (Macherey-Nagel) or RNeasy kit (Qiagen). […] For the normalization of murine and human cDNA the transcripts for the housekeeping genes hypoxanthine guanine phosphoribosyl transferase (HPRT) and ubiquitin ligase H5 (UbCH5) were quantified, respectively. Data were evaluated using Lightcycler software. Relative expression was calculated as follows: Et^ΔCp target gene (reference-sample)/EhΔCp housekeeping gene (reference-sample), where Cp represents the crossing point and E represents the reaction efficiency, determined by serial dilution of DNA.
(A) Comparison of the genomic sequence of the murine and the human proximal twist1 promoter (−150 to −100). […] The binding of NFAT1 (D) and the NF-κB subunit p65 (E) to the proximal promoter of twist1 was analyzed by chromatin immunoprecipitation (ChIP). […] The immunoprecipitated DNA was quantified by RT PCR using primers specific for the proximal promoter. […]

Data set [2] has as its system twist1 mRNA in DO11.10 Th cells. As to the kind of experiment: twist1 mRNA induction by Th1-polarizing signals in DO11.10 Th cells. Format: cell-based, murine. To be noted: for induction of twist1 expression by polarizing signal: CD62Lhi DO11.10 Th cells stimulated 5 d, then 3 h PMA/ionomycin and IL-2, IFN-γ tested in the absence of IL-12 (FIG. 3A). As for the experimental part: as §1, §2
Twist1 mRNA of Th cells activated for 3 h with PMA/ionomycin and IL-2 was quantified by RT PCR (A-D). […] Twist1 transcripts were quantified on d 11. […]

Data set [3] relates to Rag-deficient mice, intestine. As to the kind of experiment: Transfer colitis model with Hop shRNA transduced Th1 cells. Format: in vivo, murine. The note with it: Th1 cells transduced with shRNA transferred into Rag-deficient mice (FIG. 12). The text has this:
To assess the functional role of hop we used a T cell dependent model of inflammatory bowel disease. In this model, T cells are transferred into Rag-deficient or SCID mice lacking T and B cells. In this model, the transferred T cells react against the intestinal bacterial flora leading to inflammation in the intestine. For the analysis of the function of Hop we inhibited the expression of Hop by shRNA-mediated knock-down. Polyclonally activated Th1 cells transduced with a retroviral vector encoding a Hop-specific shRNA or a control shRNA were transferred into Rag-deficient mice. […] The transfer of control Th1 cells lead to severe inflammation of the intestine with strong infiltration of inflammatory cells and a complete loss of the intestinal architecture.

For TNF-α, the “induction of twist1 expression by stimulus alone” value in data set [1] is recorded as “did not induce twist1 expression”.

As for “IFN-γ: cytokine added in the absence of IL-12, 10 ng/ml”, the “induction of twist1 expression by polarizing signal” value in data set [2] is “did not induce twist1 expression”.

Turning to `O=C(Nc1ccc(-n2nc(C(F)(F)F)cc2C(F)(F)F)cc1)c1ccc(Cl)cc1` [BTP1], the “PMA/ionomycin mediated up-regulation of twist1 mRNA expression” value in data set [1] is “blocked the PMA/ionomycin mediated up-regulation of twist1 mRNA expression in a dose-dependent fashion”.

On to `CCCCCCCCCCCCCC(=O)O[C@@H]1[C@@H](C)[C@@]2(O)[C@@H](C=C(CO)C[C@]3(O)C(=O)C(C)=C[C@@H]23)[C@@H]2C(C)(C)[C@]12OC(C)=O` [PMA], for which the “induction of twist1 expression by stimulus alone” value in data set [1] is listed as “did not induce twist1 expression”.

Regarding “Hop-specific shRNA: retroviral vector encoded shRNA against Hop, target sequence SEQ ID NO. 40, whole shRNA SEQ ID NO. 41 (TGCAGATCTGTTACGGACTATTCAAGAGATAGTCCGTAACAGATCTGCTTTTTTC)”, the “clinical signs of inflammation, histological analysis of the intestine” value in data set [3] is listed as “strongly reduced clinical signs of inflammation”.

As for `S=C(S)N1CCCC1` [PDTC, pyrrolidine dithiocarbamate], in data set [1], the “PMA/ionomycin mediated up-regulation of twist1 mRNA expression” value is given as “blocked the PMA/ionomycin mediated up-regulation of twist1 mRNA expression in a dose-dependent fashion”.

B1: IL-12: recombinant murine IL-12, Th1-polarizing signal (protein, UniProt P43431 23-215; P43432 23-335, looked up)
Interleukin-12 subunit alpha: RVIPVSGPARCLSQSRNLLKTTDDMVKTAREKLKHYSCTAEDIDHEDITRDQTSTLKTCLPLELHKNESCLATRETSSTTRGSCLPPQKTSLMMTLCLGSIYEDLKMYQTEFQAINAALQNHNHQQIILDKGMLVAIDELMQSLNHNGETLRQKPPVGEADPYRVKMKLCILLHAFSTRVVTINRVMGYLSSA
Interleukin-12 subunit beta: MWELEKDVYVVEVDWTPDAPGETVNLTCDTPEEDDITWTSDQRHGVIGSGKTLTITVKEFLDAGQYTCHKGGETLSHSHLLLHKKENGIWSTEILKNFKNKTFLKCEAPNYSGRFTCSWLVQRNMDLKFNIKSSSSSPDSRAVTCGMASLSAEKVTLDQRDYEKYSVSCQEDVTCPTAEETLPIELALEARQQNKYENYSTSFFIRDIIKPDPPKNLQMKPLKNSQVEVSWEYPDSWSTPHSYFSLKFFVRIQRKKEKMKETEEGCNQKGAFLVEKTSTEVQCKGGNVCVQAQDRYYNSSCSKWACVPCRVRS
For B1, the “induction of twist1 expression by polarizing signal” value in data set [2] is given as “induced twist1 expression in a dose-dependent fashion”. In addition, the “increase of TCR activation-dependent twist1 expression over one week stimulated Th1 cells” value in data set [2] (Th1 cells polarized one week with IL-12, reactivated another week in the presence of IL-12 (FIG. 3D)) amounted to 16 fold.
